± gives the expanded uncertainty stated by the source.
Experiments:
[1] = refractive index (Na D-line) (dimensionless); xn = mol fraction of the nth substance listed; details: 298.15 K, 101 kPa, Liquid, Standard Abbe refractometry
[2] = xn = mol fraction of the nth substance listed; details: 298.15 K, 101 kPa, Liquid; for viscosity: Capillary tube (Ostwald / Ubbelohde) method; for mass density: Pycnometric method; for speed of sound: ultra sonice interferometer
[3] = refractive index (Na D-line) (dimensionless); details: 298.15 K; 101.33 kPa; Liquid; Standard Abbe refractometry
[4] = 298.15 K, 101 kPa, Liquid

ClCCl [dichloromethane] + COC(C)=O
refractive index ([1]; x1 = 0.4659): 1.38 ± 0.001 | viscosity ([2]; x1 = 0.4659): 0.425 ± 0.007 mPa·s | mass density ([2]; x1 = 0.4659): 1078 ± 0.6 kg/m3 | speed of sound ([2]; x1 = 0.4659): 1056 ± 1 m/s

ClCCl [dichloromethane] + CCOC(C)=O
refractive index ([1]; x1 = 0.5092): 1.388 ± 0.001 | viscosity ([2]; x1 = 0.5092): 0.456 ± 0.007 mPa·s | mass density ([2]; x1 = 0.5092): 1059.2 ± 0.6 kg/m3 | speed of sound ([2]; x1 = 0.5092): 1059 ± 1 m/s

ClCCl [dichloromethane] + CCCOC(C)=O
refractive index ([1]; x1 = 0.546): 1.397 ± 0.001 | viscosity ([2]; x1 = 0.546): 0.518 ± 0.007 mPa·s | mass density ([2]; x1 = 0.546): 1053.5 ± 0.6 kg/m3 | speed of sound ([2]; x1 = 0.546): 1181 ± 1 m/s

ClCCl [dichloromethane] + CCCCOC(C)=O
refractive index ([1]; x1 = 0.5777): 1.403 ± 0.001 | viscosity ([2]; x1 = 0.5777): 0.575 ± 0.008 mPa·s | mass density ([2]; x1 = 0.5777): 1049.2 ± 0.6 kg/m3 | speed of sound ([2]; x1 = 0.5777): 1181 ± 1 m/s

C1COCO1 [1,3-dioxolane]
refractive index [3]: 1.398 ± 0.001 | viscosity ([4]; Capillary tube (Ostwald / Ubbelohde) method): 0.588 ± 0.008 mPa·s | mass density ([4]; Pycnometric method): 1057 ± 0.6 kg/m3 | speed of sound ([4]; ultra sonice interferometer): 1339 ± 1 m/s

CC(=O)OCCC(C)C [3-methylbutyl ethanoate] + ClCCl
refractive index ([1]; x2 = 0.6052): 1.406 ± 0.001 | viscosity ([2]; x2 = 0.6052): 0.633 ± 0.008 mPa·s | mass density ([2]; x2 = 0.6052): 1043.3 ± 0.6 kg/m3 | speed of sound ([2]; x2 = 0.6052): 1115 ± 1 m/s

From the NIST ThermoML archive (doi:10.1016/j.tca.2009.07.011)
